# “And” between values parts separate entries of the source, which are not always exact repeats. Equal values may be shown once. Marks after values point to notes of the source that are not given here.
# Columns and labels:
# [1] = biological target: T1, HSV1-TK, GMPK and baker's yeast NDPK (Human herpesvirus 1, UniProt P0DTH5); assay: TK-GMPK-NDPK coupling with baker's yeast NDPK; type: biochemical, herpes simplex virus type 1; S. cerevisiae; details: substrate 100 μM
# T1 construct: purchased SIGMA
# [2] = biological target: HSV1-TK and GMPK from S. cerevisiae (Human herpesvirus 1, UniProt P0DTH5); assay: TK-GMPK coupling, % of products formed; type: biochemical, herpes simplex virus type 1; S. cerevisiae; details: for % of the products formed, NDP / % of the products formed, NMP: substrate 100 μM
# Method: (§1) In a preferred coupling mode, the incubation is carried out in 100 μl of 50 mM Tris/HCl buffer pH 7.8, containing 1 mg/ml of BSA (bovine serum albumin), 5 mM ATP, 4 mM MgCl2, 12 mM KCl, 2 mM DTT, 600 μM EDTA, 100 μM [8-3H]-GCV (40 nCi/nmol) or 100 μM [2-3H]-ACV 40 nCi/nmol and various quantities of TK, GuK and NDPK (cf Table 2).
# [3] = biological target: T2, HSV1-TK/S. cerevisiae GMPK fusion protein (UniProt P0DTH5+P15454, V34A); assay: Phosphorylation to diphosphate by TK-GMPK fusion protein; type: biochemical, herpes simplex virus type 1; S. cerevisiae
# T2 construct: made in house; host or cells: E. coli BL21 DE3 pXL3098 (pET11a)
# T2 sequence (P0DTH5+P15454 with tags, fused parts or gaps P15454:V34A): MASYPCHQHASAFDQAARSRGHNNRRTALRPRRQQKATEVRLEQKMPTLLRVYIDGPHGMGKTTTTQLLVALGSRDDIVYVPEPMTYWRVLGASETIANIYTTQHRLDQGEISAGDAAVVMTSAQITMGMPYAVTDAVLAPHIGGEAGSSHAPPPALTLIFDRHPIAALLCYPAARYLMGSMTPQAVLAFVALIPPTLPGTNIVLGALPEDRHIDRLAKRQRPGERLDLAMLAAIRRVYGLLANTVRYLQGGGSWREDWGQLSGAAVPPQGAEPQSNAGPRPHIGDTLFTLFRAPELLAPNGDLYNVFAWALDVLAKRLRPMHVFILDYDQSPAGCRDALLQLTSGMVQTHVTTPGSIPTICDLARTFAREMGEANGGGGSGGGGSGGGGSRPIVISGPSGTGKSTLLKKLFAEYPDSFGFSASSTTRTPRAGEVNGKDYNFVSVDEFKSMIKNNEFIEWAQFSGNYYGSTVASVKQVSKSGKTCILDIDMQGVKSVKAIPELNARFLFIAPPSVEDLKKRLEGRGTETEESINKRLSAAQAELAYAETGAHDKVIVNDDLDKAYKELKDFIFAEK
# Method: (§2) The reaction is stopped by heating for 3 min at 80° C.; after centrifugation, 100 μl of incubation product are analyzed in the following system: […]
# [4] = system: Mixture 2-865:H12/GMPK; assay: Phosphorylation to diphosphate by mixture of 2-865:H12 and GMPK; type: biochemical
# Method: The capacity of the TK-GMPK fusion protein to convert GCV or ACV to GCVDP or ACVDP compared with a synthetic mixture of TK and GMPK is determined in the following manner:
# as §2
# [5] = biological target: T3, HSV1-TK, GMPK and human (erythrocyte) NDPK (Human herpesvirus 1, UniProt P0DTH5); assay: TK-GMPK-NDPK coupling with human erythrocyte NDPK; type: biochemical; details: substrate 100 μM
# T3 construct: purchased SIGMA; host or cells: human erythrocytes (NDPK)
# Method: as §1
# [6] = biological target: T4, HSV1-TK, GMPK and bovine (liver) NDPK (Human herpesvirus 1, UniProt P0DTH5); assay: TK-GMPK-NDPK coupling with bovine liver NDPK; type: biochemical; details: substrate 100 μM
# T4 construct: purchased SIGMA; host or cells: bovine liver (NDPK)
# Method: as §1
# [7] = biological target: Mixture wild type TK/GMPK (Human herpesvirus 1, UniProt P0DTH5); type: biochemical, herpes simplex virus type 1; S. cerevisiae; details: Mixture wild type/GMPK 1.66/0.33 μg; GCV 100 μM
# Method: as §2
# [8] = system: mice; details: mouse, in vivo, 150 mg/kg; cited from earlier work
# [9] = system: glioma; details: rats having a glioma, HSV1-TK gene expressed, 150 mg/kg doses injected; cited from earlier work
# [10] = biological target: T5, Yeast guanylate kinase (S. cerevisiae) (Saccharomyces cerevisiae, UniProt P15454); assay: Kinetic constants of yeast guanylate kinase for GCVMP and ACVMP; type: biochemical; details: for Km / Vmax: yeast GMPK, 30° C., pH 7.8, 4 mM ATP
# T5 sequence (P15454 1-187): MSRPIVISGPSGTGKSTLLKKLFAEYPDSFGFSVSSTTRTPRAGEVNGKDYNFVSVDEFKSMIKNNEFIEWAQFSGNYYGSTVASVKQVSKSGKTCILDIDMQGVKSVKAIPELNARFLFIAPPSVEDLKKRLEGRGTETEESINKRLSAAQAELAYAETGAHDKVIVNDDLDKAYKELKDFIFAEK
# Method: The kinetic constants for the yeast GMP kinase purified as described in Example 3 are determined under the following enzymatic assay conditions: The yeast GMP kinase is incubated for 10 min at 30° C. in 100 μl of 50 mM Tris/HCl buffer pH 7.8 containing 4 mM ATP, 10 mM MgCl2, 100 mM KCl, 1 mg/ml BSA (bovine serum albumin) and 5-100 μ[…] (40 nCi/nmol) or 200-3200 μ[…] (40 nCi/nmol). he reaction is stopped by heating the reaction mixture for 3 min at 80° C., 50 μl of 10 mM potassium phosphate buffer pH 3.5 are added, and after centrifugation for 2 min at 10,000×g, 100 μl of supernatant are analysed by high performance liquid chromatography (HPLC) in the following system: for the calculation of the kinetic constants, the quantity of yeast GMP kinase introduced into the enzymatic reaction is adjusted so as to convert at most 10% of the substrate initially introduced. The Michaelis curves are adjusted to the experimental points with the aid of the Grafit software (Sigma). […] For substrates entering into competition, the Vmax/Km constant determines the specificity of the enzyme for these substrates. It is known by the name of “specificity constant” [A. Fersht, Enzyme Structure and Mechanism, 1985, W. H. Fréeman and Co., London].
# [11] = biological target: T6, Human guanylate kinase (erythrocytes) (Homo sapiens, UniProt Q16774); details: human erythrocyte GMPK, published values a, c, cited from earlier work; for Km: b
# T6 construct: enzymatic preparations of guanylate kinase and of nucleoside diphosphate kinase of human erythrocytes; host or cells: human erythrocytes
# T6 sequence (Q16774 1-197): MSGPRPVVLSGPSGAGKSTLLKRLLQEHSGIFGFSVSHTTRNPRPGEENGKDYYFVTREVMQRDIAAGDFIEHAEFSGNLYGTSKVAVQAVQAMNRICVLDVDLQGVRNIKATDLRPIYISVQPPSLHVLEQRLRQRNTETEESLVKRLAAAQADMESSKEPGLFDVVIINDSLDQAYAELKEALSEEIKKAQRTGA
# [12] = TK 11.7 μg, GMPK 74 μg, yeast NDPK 1.5 μg, 20 min
# [13] = TK 11.7 μg, GMPK 74 μg, yeast NDPK 15 μg, 30 min
# [14] = TK 11.7 μg, GMPK 74 μg, human NDPK 6.75 μg, 30 min
# [15] = TK 11.7 μg, GMPK 74 μg, bovine NDPK 5 μg, 30 min
# [16] = TK 1.3 μg, GMPK 2.5 μg, yeast NDPK 0.75 μg, 60 min
# [17] = TK 10.4 μg, GMPK 7.4 μg, yeast NDPK 0.75 μg, 20 min
# [18] = TK 10.4 μg, GMPK 7.4 μg, yeast NDPK 1.5 μg, 30 min
# [19] = TK 10.4 μg, GMPK 7.4 μg, 30 min
# [20] = TK 10.4 μg, GMPK 7.4 μg, human NDPK 0.675 μg, 20 min
# [21] = TK 10.4 μg, GMPK 7.4 μg, human NDPK 6.75 μg, 30 min
# [22] = TK 10.4 μg, GMPK 7.4 μg, bovine NDPK 0.5 μg, 20 min
# [23] = TK 10.4 μg, GMPK 7.4 μg, bovine NDPK 5 μg, 30 min
compound,measurement,setting,value
"Nc1nc2c(ncn2COCCO)c(=O)[nH]1 [ACV, acyclovir]","% of the products formed, NDP",[1]; [12],60.0%
same,"% of the products formed, NMP",[1]; [12],13.0%
same,"% of the products formed, NTP",[1]; [12],8%
same,"% of the products formed, NDP",[1]; [13],4.6%
same,"% of the products formed, NMP",[1]; [13],1.4%
same,"% of the products formed, NTP",[1]; [13],81%
same,"% of the products formed, NDP","[2]; TK 11.7 μg, GMPK 74 μg, 20 min",54%
same,"% of the products formed, NMP","[2]; TK 11.7 μg, GMPK 74 μg, 20 min",26.0%
same,GCVDP formed,"[3]; Fusion 50 μg, ACV 20 μM",1220** pmmol
same,GCVDP formed,"[3]; Fusion 50 μg, ACV 50 μM",2920** pmmol
same,GCVDP formed,"[3]; Fusion 50 μg, ACV 50 μM Incub 1 h",6740** pmmol
same,GCVDP formed,"[3]; Fusion 200 μg, ACV 100 μM",18500** pmmol
same,GCVDP formed,"[4]; Mixture 2-865/H12/GMPK 133/66 μg, ACV 100 μM",17260** pmmol
same,GCVDP formed,"[4]; Mixture 2-865: H12/GMPK 33/17 μg, ACV 20 μM",2325** pmmol
same,GCVDP formed,"[4]; Mixture 2-865: H12/GMPK 33/17 μg, ACV 50 μM",3680** pmmol
same,GCVDP formed,"[4]; Mixture 2-865: H12/GMPK 33/17 μg, ACV 50 μM Incub 1 h",5890** pmmol
same,"% of the products formed, NDP",[5]; [14],80.0%
same,"% of the products formed, NMP",[5]; [14],1.8%
same,"% of the products formed, NDP",[6]; [15],82.0%
same,"% of the products formed, NMP",[6]; [15],1.7%
same,"% of the products formed, NTP",[6]; [15],1.3%
"Nc1nc(O)c2ncn(COC(CO)CO)c2n1 [GCV, ganciclovir]","% of the products formed, NDP",[1]; [16],13.8%
same,"% of the products formed, NMP",[1]; [16],3.2%
same,"% of the products formed, NDP",[1]; [17],12.6%
same,"% of the products formed, NMP",[1]; [17],2.6%
same,"% of the products formed, NDP",[1]; [18],6.9%
same,"% of the products formed, NMP",[1]; [18],0.9%
same,"% of the products formed, NTP",[1]; [18],91.1%
same,phosphorylation of ganciclovir to ganciclovir diphosphate,[2]; coupling of HSV1-TK and GMPK from S. cerevisiae,90%
same,"% of the products formed, NMP","[2]; TK 1.3 μg, GMPK 2.5 μg, 60 min",4.4%
same,"% of the products formed, NDP","[2]; TK 2.6 μg, GMPK 2.5 μg, 30 min",89.0%
same,"% of the products formed, NMP","[2]; TK 2.6 μg, GMPK 2.5 μg, 30 min",7.5%
same,"% of the products formed, NDP",[2]; [19],90.8%
same,"% of the products formed, NMP",[2]; [19],5.3%
same,GCVDP formed,"[3]; Fusion 2 μg, GCV 50 μM",4900** pmmol
same,GCVDP formed,"[3]; Fusion 2 μg, GCV 100 μM",8270** pmmol
same,"improvement in phosphorylation by TK-GMPK fusion protein, factor",[3]; compared with coincubation of wild-type TK enzyme and GMPK enzyme,≤ 1.8
same,GCVDP formed,[7],4660** pmmol
same,toxicity,[8],highly toxic
same,GCVDP formed,"[4]; Mixture 2-865: H12/GMPK 1.66/0.33 μg, GCV 50 μM",5300** pmmol
same,"% of the products formed, NDP",[5]; [20],90.3%
same,"% of the products formed, NMP",[5]; [20],6.2%
same,"% of the products formed, NTP",[5]; [20],1.5%
same,"% of the products formed, NDP",[5]; [21],71.1%
same,"% of the products formed, NMP",[5]; [21],2.5%
same,"% of the products formed, NTP",[5]; [21],24%
same,tumour response,[9],regressions of tumour
same,"% of the products formed, NDP",[6]; [22],78.4%
same,"% of the products formed, NMP",[6]; [22],6.5%
same,"% of the products formed, NTP",[6]; [22],12.9%
same,"% of the products formed, NDP",[6]; [23],5.8%
same,"% of the products formed, NMP",[6]; [23],0.6%
same,"% of the products formed, NTP",[6]; [23],92%
acyclovir monophosphate [ACVMP],Km,[10],280 µM
same,Vmax,[10],22 µmol/min/mg
same,Km,[11],218 µM and 209 to 753 µM and 330 µM
same,Vmax,[11],1.9^a μmol/min/mg and 3.6^c μmol/min/mg
ganciclovir monophosphate [GCVMP],Km,[10],18 µM
same,Vmax,[10],40 µmol/min/mg
same,phosphorylation rate of yeast guanylate kinase relative to human enzyme,[10]; yeast vs human GMPK,twice as high
same,Km,[11],42 to 54 µM and 40 µM
same,Vmax,[11],20^a μmol/min/mg
